Laboratory results as given in patent US5554359A, “Pigmentation enhancer and method” (priority 1994, dated 1996).

Tests used:
[1] = tested on: tyrosinase activity in human foreskin organ cultures; experiment: Tyrosinase activity in human foreskin organ cultures (tyrosine hydroxylase assay); assay type: cell-based; conditions: Table 2; 0.1 mM; 72 h; control 3.15 ± 0.1; triplicate ± s.d.
Experimental: At the time of surgical removal, human foreskins were placed on sterile gauze saturated with sterile IMDM medium (Iscove's modified Dulbecco's medium purchased from Irvine Scientific of Santa Ana, Calif.) for transportation from the Hospital nursery to the laboratory. The tissues were rinsed in sterile IMDM medium containing 500 U/ml penicillin and 500 μg/ml of streptomycin for 5 minutes. Under sterile conditions, an intradermal injection of medium was performed from the dermal side prior to dissection of the mucous membrane and lower dermis by scissors to make the thickness of skins equal. The foreskins were then cut into approximately 3 mm×3 mm squares and either frozen at -75° C. or placed in organ culture as described hereafter.
The organ culture medium was prepared from IMDM with glutamine supplemented with 20% horse serum, 5% fetal bovine serum, 100 U/ml penicillin, 100 μg/ml streptomycin and 3 mg/ml sodium bicarbonate. The serums were obtained from Hyclone Lab. Inc. of Logan Utah. Culture units were prepared by placing sterilized filters (AP20 025 00, Millipore) over sterilized support screens ([…] Swinnex filter support screens, Millipore) in the wells of 6-well tissue culture plates (Falcon 3046) with medium added to the wells such that the skin support screens floated and the filter absorbed the medium from beneath. The tissue samples were placed, epidermis up, on top of the saturated filters and incubated at 37° C. in a 5% CO2 humidified atmosphere. The medium was changed everyday. Harvested cultures were frozen at -75° C.
Tyrosinase activity in human skin organ cultures was determined by measuring the tyrosine hydroxylase activity of the enzyme. The assay measures the production of ^3 H2 O during the conversion of [^3 H]tyrosine to L-DOPA. Weighed skin preparations were incubated in 0.3 ml of a reaction mixture containing 0.01 mM of L-tyrosine, 5-6 uCi/ml of [^3 H]tyrosine and 0.1 mM L-DOPA in 0.1M of pH 6.8 phosphate buffer for 4 hours at 37° C. To terminate the reaction, 1 ml of phosphate buffer was added, the tubes vortexed, and 0.4 ml aliquots removed in triplicate and mixed with an equal volume of Norit SG activated charcoal (10% w/v, in 0.1N HCl). Following centrifugation at 2000×g for 10 min, the supernatants (0.5 ml) were placed in scintillation vials, scintillation fluid added, and vials counted in a TM Analytic 6895 scintillation counter equipped with a DPM processor.
Human foreskins were treated with the compounds shown in Table 1, placed in culture, and incubated for 72 hours. The skins were then assayed for tyrosinase activity with the tyrosine hydroxylase assay method as described herein.
The medium and compounds were changed daily. Tyrosinase activity was determined by measuring the tyrosine hydroxylase activity of the enzyme.
Human foreskin organ cultures were treated with the compounds listed in Table 3 for 3 days and tyrosinase activity determined as described herein. Theophylline was used at 1 mM.

[2] = tested on: melanin in human melanocytes; experiment: Melanin content in human melanocytes; assay type: cell-based
Experimental: (§1) The mouse melanoma cell lines used to study the effects of lysosomotropic agents herein were the Cloudman S91 cell line (ATCC no. CCL 53.1) and two subclones of this line developed in our laboratory, the amelanotic line, AM-7, and a melanotic line, MEL-11A. All melanoma cell lines were grown in Ham's F-10 nutrient medium supplemented with 10% horse serum, penicillin (100 units/ml), and streptomycin (100 μg/ml). The normal human melanocyte cell strains used in this study were derived from foreskins of either neonares or from boys 2-6 years old. Human melanocyte cultures were grown in Ham's F-10 nutrient medium supplemented with 10% horse serum, 5% fetal bovine serum (FBS), 32 nM TPA (12-O-tetradecanoylphorbol 13-acetate), 10^-4 M IBMX(3-isobutyl-1-methylxanthine), penicillin (100 units/ml), and streptomycin (100 μg/ml).
The amount of melanin in melanoma cells or in melanocytes was determined by incubating cell pellets in 2 ml of 1-N NaOH for 48 hours at 37° C. and then measuring the solubilized melanin at 400 nm.
(§2) Dose/response parameters for ammonium chloride action were determined. […] Since tyrosinase is the rate-limiting enzyme for melanin synthesis, the stimulation of this enzyme by ammonium chloride should lead to increased melanin content of stimulated cells. […] Ammonium chloride increased tyrosinase activity in melanocytes from white-skinned individuals twenty-fold within 24 hours and by this time melanin contents had increased two-fold. Two other lysosomotropic agents, monensin and nigericin, were tested for their effects on tyrosinase activity. […] Thus, lysosomotropic agents have the ability to stimulate tyrosinase activity and melanin production in human melanocytes derived from white-skinned individuals, and to reduce melanin production in melanocytes from black-skinned people.

[3] = tested on: tyrosinase activity in human melanocytes; experiment: Tyrosinase responses in human melanocytes (Table 6); assay type: cell-based
Experimental: as §1
(§3) To determine tyrosinase activity in situ in either melanoma cells or in human melanocyte cultures, the tyrosine hydroxylase activity of the enzyme was determined. Cells were seeded into 60-mm culture dishes at 2×10^5 cells/dish and allowed to attach overnight. The medium was then exchanged for the appropriate growth medium supplemented with 1 μCi/ml of [^3 H]tyrosine (L-ring-3,5-^3 H]-tyrosine, DuPont New England Nuclear), and with hormones, where indicated. Cells were grown in labeled medium for 24 hours, and at this time, the medium was removed and assayed for the presence of ^3 H2 O using the charcoal absorption method of Pomerantz. Tyrosinase activity in cell homogenates was determined by sonicating cell pellets in 0.1-M sodium phosphate buffer (pH 6.8) and then incubating 50-μl aliquots in 0.5 ml of a reaction mixture containing 0.1-mM tyrosine, 2 μCi/ml of [^3 H]tyrosine, 0.1-mM L-DOPA (dihydroxyphenylalanine), and 0.1 mM PMSF (phenylmethylsulfonyl fluoride) at 37° C. for 2 hours. Reactions were terminated by the addition of 1 ml of charcoal (10% w/v in 0.1-N HCl). Samples were centrifuged, and the supernatants removed for determination of the amount of ^3 H2 O produced.
Hormone responsiveness in human melanocyte cell cultures were examined (for these studies, melanocytes derived from skin type III were used). […] Tyrosinase activity and melanin content typically double with a 48-hour exposure to IBMX. […] The steroid hormones, for the most part, caused little, if any, change in tyrosinase activity at the concentrations used.

[4] = tested on: tyrosinase activity in mouse melanoma cells; experiment: Tyrosinase responses in mouse melanoma cells (Table 6); assay type: cell-based; conditions: for Effect on Tyrosinase Activity, Mouse Melanoma: Table 6, 10^-7 M except IBMX 10^-4 M, theophylline 1 mM, ammonium chloride 10 mM, A23187 not given
Experimental: as §1
as §3, with “produced. […]” for “produced.”

[5] = tested on: melanin in human melanocytes; conditions: three days; melanocyte cultures; cited from earlier work
[6] = tested on: tyrosinase activity in mouse melanoma cells; conditions: Cloudman S91; cited from earlier work
tyrosinase mRNA = conditions: three days; melanocyte cultures; cited from earlier work
[7] = tested on: tyrosinase abundance in mouse melanoma cells; conditions: other studies; cited from earlier work
[8] = tested on: tyrosinase activity in mouse melanoma cells; conditions: e.g., 10^-5 M; footnote b of Table 6; cited from earlier work
[9] = tested on: tyrosinase activity in AM-7 cells; experiment: Tyrosinase activity in amelanotic mouse melanoma clone AM-7; assay type: cell-based
Experimental: as §1
(§4) To determine tyrosinase activity in situ in either melanoma cells or in human melanocyte cultures, the tyrosine hydroxylase activity of the enzyme was determined. […] Tyrosinase activity in cell homogenates was determined by sonicating cell pellets in 0.1-M sodium phosphate buffer (pH 6.8) and then incubating 50-μl aliquots in 0.5 ml of a reaction mixture containing 0.1-mM tyrosine, 2 μCi/ml of [^3 H]tyrosine, 0.1-mM L-DOPA (dihydroxyphenylalanine), and 0.1 mM PMSF (phenylmethylsulfonyl fluoride) at 37° C. for 2 hours. […]

[10] = tested on: tyrosinase activity in MEL-11A cells; experiment: Tyrosinase activity in melanotic mouse melanoma clone MEL-11A; assay type: cell-based; conditions: MSH 10^-7 M or ammonium chloride 10 mM; 24 h; FIG. 4 bottom
Experimental: as §1, §4

[11] = tested on: tyrosinase activity in human melanocytes from white-skinned individuals; experiment: Tyrosinase activity in human melanocytes from white skin; assay type: cell-based
Experimental: as §1, §3, §2

[12] = tested on: tyrosinase activity in human melanocytes from black individuals; experiment: Tyrosinase activity in human melanocytes from black skin; assay type: cell-based; conditions: 10 mM
Experimental: The mouse melanoma cell lines used to study the effects of lysosomotropic agents herein were the Cloudman S91 cell line (ATCC no. CCL 53.1) and two subclones of this line developed in our laboratory, the amelanotic line, AM-7, and a melanotic line, MEL-11A. All melanoma cell lines were grown in Ham's F-10 nutrient medium supplemented with 10% horse serum, penicillin (100 units/ml), and streptomycin (100 μg/ml). The normal human melanocyte cell strains used in this study were derived from foreskins of either neonares or from boys 2-6 years old. […]
as §4
Dose/response parameters for ammonium chloride action were determined. […]

[13] = within 24 hours, white-skinned individuals

SMILES: CC(C)Cn1c(=O)n(C)c(=O)c2[nH]cnc21 [IBMX, 3-isobutyl-1-methylxanthine]
- Tyrosinase Activity [1]: 7.03 ± 0.49 pmoles ^3 H2 O/hour/mg skin
- melanin content ([2]; 48-hour exposure, IBMX): double
- Tyrosinase Activity ([3]; 48-hour exposure, IBMX): double
- activity at 100 µM ([3]; Homo sapiens, Melanocyte, Table 6, 10^-7 M except IBMX 10^-4 M, theophylline 1 mM, ammonium chloride 10 mM, A23187 not given, melanocytes from skin type III, read-out: Effect on Tyrosinase Activity, Human Melanocyte): 150 to 200%
- response of mouse melanoma cells ([4]; compounds that raise intracellular cAMP levels or MSH): respond vigorously
- increase in melanin production [5]: fourfold increase
- mimicking of the MSH response [6]: mimicked
- change in amount of tyrosinase mRNA (tyrosinase mRNA): not accompanied by any increase
- tyrosinase activity correlates with enzyme abundance [7]: correlates with an increase in enzyme abundance

SMILES: CC1=C(/C=C/C(C)=C/C=C/C(C)=C/C(=O)O)C(C)(C)CCC1 [Retinoic Acid, all-trans]
- Effect on Tyrosinase Activity, Human Melanocyte ([3]; Table 6, 10^-7 M except IBMX 10^-4 M, theophylline 1 mM, ammonium chloride 10 mM, A23187 not given, melanocytes from skin type III): Inhibited
- Effect on Tyrosinase Activity, Mouse Melanoma [4]: Inhibited
- effect on tyrosine activity at higher concentrations [8]: stimulate tyrosine activity

SMILES: Cl.N [Ammonium chloride, ammonium chloride]
- stimulation of tyrosinase activity in presence of cycloheximide ([9]; 10 mM ammonium chloride with or without cycloheximide, data not shown): stimulation occurred in cells treated with or without cycloheximide
- increase in tyrosinase activity ([9]; 10 mM ammonium chloride, 24 h, FIG. 4 top): two-fold increase
- increase in tyrosinase activity [10]: four-fold increase
- Tyrosinase Activity ([11]; 10 mM, 48 hours, cell strain #84W, FIG. 5): markedly elevated
- tyrosinase activity in melanocytes derived from white skin ([11]; 10 mM, footnote c of Table 6): stimulates tyrosinase activity
- concentration of maximal stimulation of tyrosinase activity ([11]; cell strain 69W, 48 hours, FIG. 6): 7.5 mM
- stimulation of tyrosinase activity ([11]; cell strain 69W, up to four hours, FIG. 8): effective in stimulating tyrosinase activity
- increase in tyrosinase activity [11, 13]: twenty-fold
- Tyrosinase Activity ([12]; 48 hours, cell strain #90A6, FIG. 5): depressed
- tyrosinase activity in highly melanized melanocytes ([12]; black skin types, footnote c of Table 6): markedly inhibite
- melanin versus untreated cells ([2]; 10 mM, 3 days, cell strain 69W, FIG. 7): twice as much melanin than untreated cells
- increase in melanin contents [2, 13]: two-fold
- tyrosinase activity in human melanocytes ([3]; Table 6 text): stimulates tyrosinase activity
- Effect on Tyrosinase Activity, Mouse Melanoma [4]: ++ (>300%)
- tyrosinase activity in mouse melanoma cells ([4]; Table 6 text): stimulates tyrosinase activity
